Results taken from paper PMC12631003 (2025).

Assays:
[1] = tested on: pre-let-7a-1 (RNA, miRNA) UUAGGGUCACACCCACCACUGGGAGAUAA; assay: microscale thermophoresis; conditions: Na+ (185 mM NaCl, 8 mM Na2HPO4), no Mg2+; 1 mM EDTA, 0.05% Tween-20; 5 nM RNA
[2] = tested on: miRNA21 (RNA, miRNA) GUUGACUGUUGAAUCUCAUGGCAAC; assay: microscale thermophoresis; conditions: Na+ (185 mM NaCl, 8 mM Na2HPO4), no Mg2+; 1 mM EDTA, 0.05% Tween-20; 5 nM RNA; compounds up to 100-300 µM

Row | K d [1] [µM] | binding [2] | Compound
1 | 29.4 | no | CCc1nc(C(N)=O)c(Nc2ccc(N3CCC(N4CCN(C)CC4)CC3)c(OC)c2)nc1NC1CCOCC1
2 | 5.0 | no | CN1CCN(c2ccc(C(=O)Nc3n[nH]c4ccc(Cc5cc(F)cc(F)c5)cc34)c(NC3CCOCC3)c2)CC1
3 | 217 | – | Cn1cnc2c(F)c(Nc3ccc(Br)cc3Cl)c(C(=O)NOCCO)cc21
4 | 82.4 | – | N#CC[C@H](C1CCCC1)n1cc(-c2ncnc3[nH]ccc23)cn1
